The structures appear in SMILES notation. Values joined by “and” are separate entries in the source; they are usually repeats but may differ in a detail not shown here. Identical values can stand only once.

The values that follow come from PubChem BioAssay AID180 (DTP/NCI, 2004).

This experiment deals with BDF1 mice, Adenocarcinoma 755 s.c., tumor weight T/C. Put plainly: NCI In Vivo Anticancer Drug Screen. Data for tumor model Adenocarcinoma 755 (subcutaneous) in B6D2F1 (BDF1) mice. Conditions: endpoint: mean tumor weight, schedule: Q01DX011 (ip), higher = larger tumour. In a few lines:
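Transplantable tumor implanted; mice dosed with compound or vehicle; survival or tumor size recorded; ratio of treated to vehicle control reported.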

[1] abbreviates: dose: 3.0 mg/kg/injection, vehicle: carboxymethylcellulose (CMC).
Where [2] appears, read: dose: 25.0 mg/kg/injection, vehicle: other.
[3] abbreviates: dose: 50.0 mg/kg/injection, vehicle: carboxymethylcellulose (CMC).
Setting [4] is: dose: 100.0 mg/kg/injection, vehicle: carboxymethylcellulose (CMC).
The mark [5] stands for this setting: dose: 25.0 mg/kg/injection, vehicle: methylcellulose (MC).

`COCCCNS(=O)(=O)c1ncnc2nc[nH]c12`: the T/C – broadly, the result in the treated group divided by that in the control group, in per cent – runs as follows: (dose: 1.0 mg/kg/injection, vehicle: carboxymethylcellulose (CMC)) 79 % of control; (dose: 1.0 mg/kg/injection, vehicle: saline) 74 % of control; (dose: 2.5 mg/kg/injection, vehicle: saline) 96 % of control; under setting [1], 63 % of control and 81 % of control; (dose: 3.0 mg/kg/injection, vehicle: saline) 163 % of control; (dose: 5.0 mg/kg/injection, vehicle: carboxymethylcellulose (CMC)) 86 % of control. Also, the T/C is 105 % of control (dose: 6.0 mg/kg/injection, vehicle: other); 80 % of control (dose: 10.0 mg/kg/injection, vehicle: carboxymethylcellulose (CMC)); 43 % of control (dose: 12.0 mg/kg/injection, vehicle: other); 8 % of control (2×) and 30 % of control (dose: 12.5 mg/kg/injection, vehicle: carboxymethylcellulose (CMC)); 24 % of control (dose: 12.5 mg/kg/injection, vehicle: saline); 37 % of control under setting [2]. Further, the T/C (dose: 25.0 mg/kg/injection, vehicle: saline) is 5 % of control and 9 % of control; the T/C under setting [3] is 3 % of control and 4 % of control; the T/C (dose: 50.0 mg/kg/injection, vehicle: saline) is 5 % of control; the T/C under setting [4] was 3 % of control; the T/C (dose: 100.0 mg/kg/injection, vehicle: other) was 7 % of control; the T/C (dose: 200.0 mg/kg/injection, vehicle: saline) is 1 % of control.
Regarding `CC(C)Sc1nc(N)nc2c1ncn2C1OC(CO)C(O)C1O` (stereo not drawn), the T/C (dose: 0.38 mg/kg/injection, vehicle: methylcellulose (MC)) is 48 % of control; the T/C (dose: 0.75 mg/kg/injection, vehicle: methylcellulose (MC)) was 60 % of control; the T/C (dose: 1.5 mg/kg/injection, vehicle: methylcellulose (MC)) was 40 % of control; the T/C (dose: 3.0 mg/kg/injection, vehicle: methylcellulose (MC)) is 36 % of control; the T/C (dose: 3.1 mg/kg/injection, vehicle: methylcellulose (MC)) is 3 % of control.
Consider `Oc1ccc2ccccc2c1-c1c(O)ccc2ccccc12`, for which the T/C by setting is: (dose: 12.6 mg/kg/injection, vehicle: other) 79 % of control; under setting [2], 71 % of control; (dose: 50.0 mg/kg/injection, vehicle: other) 41 % of control.
For the compound `OCC1OC(n2cnc3c(Cl)ncnc32)C(O)C1O` (stereo not drawn), the T/C (dose: 62.5 mg/kg/injection, vehicle: carboxymethylcellulose (CMC)) was 153 % of control; the T/C (dose: 100.0 mg/kg/injection, vehicle: methylcellulose (MC)) is 72 % of control; the T/C (dose: 125.0 mg/kg/injection, vehicle: carboxymethylcellulose (CMC)) was 63 % of control; the T/C (dose: 200.0 mg/kg/injection, vehicle: methylcellulose (MC)) was 78 % of control; the T/C (dose: 250.0 mg/kg/injection, vehicle: carboxymethylcellulose (CMC)) was 55 % of control; the T/C (dose: 300.0 mg/kg/injection, vehicle: methylcellulose (MC)) was 90 % of control. Further, the T/C is 63 % of control (dose: 400.0 mg/kg/injection, vehicle: methylcellulose (MC)); 11 % of control (dose: 500.0 mg/kg/injection, vehicle: methylcellulose (MC)); 4 % of control (dose: 750.0 mg/kg/injection, vehicle: methylcellulose (MC)); 15 % of control (dose: 1000.0 mg/kg/injection, vehicle: methylcellulose (MC)).
Turning to `Cn1c(=O)c2[nH]c(/N=N/N3CCCCC3)nc2n(C)c1=O`, the T/C was 61 % of control under setting [5]; 69 % of control and 70 % of control (dose: 75.0 mg/kg/injection, vehicle: methylcellulose (MC)).
Regarding `CNC(=O)NO`, the T/C is 65 % of control (dose: 50.0 mg/kg/injection, vehicle: water) and 43 % of control (dose: 100.0 mg/kg/injection, vehicle: water).
On to `C[N+]1(C)CCN(C(=O)CCCl)CC1`, for which the T/C is 47 % of control (dose: 3.1 mg/kg/injection, vehicle: other); 93 % of control (dose: 6.2 mg/kg/injection, vehicle: other); 66 % of control (dose: 12.5 mg/kg/injection, vehicle: other).
On to `Clc1ncnc2c1ncn2C1CCCS1` (stereo not drawn), for which the T/C under setting [5] was 107 % of control.
For the compound `CSc1ncnc2c1ncn2CCO`, the T/C under setting [5] was 119 % of control.
For `CCOC(O)C(F)(F)F` (stereo not drawn), the T/C (dose: 22.0 mg/kg/injection, vehicle: methylcellulose (MC)) was 110 % of control; the T/C (dose: 25.0 mg/kg/injection, vehicle: carboxymethylcellulose (CMC)) was 83 % of control; the T/C (dose: 44.0 mg/kg/injection, vehicle: methylcellulose (MC)) was 78 % of control; the T/C under setting [3] was 50 % of control; the T/C (dose: 88.0 mg/kg/injection, vehicle: methylcellulose (MC)) is 30 % of control; the T/C under setting [4] was 32 % of control.
With `CSc1ncc(C)c(=O)[nH]1`, the T/C by setting is: (dose: 15.0 mg/kg/injection, vehicle: methylcellulose (MC)) 113 % of control; (dose: 31.0 mg/kg/injection, vehicle: methylcellulose (MC)) 124 % of control; (dose: 62.0 mg/kg/injection, vehicle: methylcellulose (MC)) 99 % of control.
Regarding `CC(C)Cn1cnc2c(SCc3ccccc3F)nc(N)nc21`, the T/C runs as follows: (dose: 18.75 mg/kg/injection, vehicle: methylcellulose (MC)) 80 % of control; (dose: 37.5 mg/kg/injection, vehicle: methylcellulose (MC)) 65 % of control; (dose: 150.0 mg/kg/injection, vehicle: methylcellulose (MC)) 28 % of control.
Turning to `CO[C@@H]1[C@@H](OC2OC(C)C(OC3CC(C)(O)C(OC(=O)CC(C)C)C(C)O3)C(N(C)C)C2O)[C@@H](CC=O)C[C@@H](C)C(=O)/C=C/C2O[C@H]2C[C@@H](C)OC(=O)C[C@H]1OC(C)=O` (stereo partly drawn), the T/C is 66 % of control (dose: 200.0 mg/kg/injection, vehicle: other); 60 % of control and 63 % of control (dose: 250.0 mg/kg/injection, vehicle: other); 24 % of control and 33 % of control (dose: 300.0 mg/kg/injection, vehicle: other); 45 % of control (dose: 350.0 mg/kg/injection, vehicle: other).
In the case of `Nc1ncnc2c1ncn2C(C=O)OC(C=O)CO` (stereo not drawn), under “dose: 15.0 mg/kg/injection, vehicle: carboxymethylcellulose (CMC)”, the T/C is 93 % of control.
As for `CCCn1cnc2c(SCc3ccccc3)nc(N)nc21`, the T/C runs as follows: (dose: 7.81 mg/kg/injection, vehicle: methylcellulose (MC)) 43 % of control; (dose: 15.62 mg/kg/injection, vehicle: methylcellulose (MC)) 9 % of control; (dose: 31.25 mg/kg/injection, vehicle: methylcellulose (MC)) 37 % of control; (dose: 62.5 mg/kg/injection, vehicle: methylcellulose (MC)) 1 % of control.
With `c1ccc(CSc2ncnc3nc[nH]c23)nc1`, the T/C (dose: 0.75 mg/kg/injection, vehicle: carboxymethylcellulose (CMC)) is 102 % of control; the T/C (dose: 1.5 mg/kg/injection, vehicle: carboxymethylcellulose (CMC)) was 40 % of control; the T/C under setting [1] was 26 % of control; the T/C (dose: 6.0 mg/kg/injection, vehicle: carboxymethylcellulose (CMC)) was 9 % of control; the T/C (dose: 12.0 mg/kg/injection, vehicle: carboxymethylcellulose (CMC)) is 7 % of control; the T/C under setting [3] was 5 % of control. Moreover, the T/C under setting [4] was 4 % of control.
